Among the test systems are HL-60(TB) leukemia; EKVX NSCLC; PC-3 prostate; SF-539 CNS; T-47D breast; 786-0 renal; HCT-116 colon; DU-145 prostate; HOP-62 NSCLC; BT-549 breast.
What all share (assay): NCI tumour cell line growth inhibition, 48 h

Each structure is given as a SMILES string. Where “and” joins values, the source holds several entries; their conditions need not be identical. Equal entries are not always repeated.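 48-hour exposure; five concentrations; linearly interpolated endpoints. GI50 = concentration required for 50% inhibition of growth. At the TGI there is no net growth.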

Regarding `Cc1cc2nc3ccc(N=Nc4ccc(N(C)C)cc4)cc3n(-c3ccccc3)c-2cc1=N`, the GI50 was 0.00334 µM and 0.0119 µM in the test on HL-60(TB) leukemia; 0.023 µM in the test with EKVX NSCLC; 0.0143 µM in the test with PC-3 prostate; 0.0226 µM in the test on SF-539 CNS; 0.00296 µM in the test with T-47D breast; 0.0778 µM in the test on 786-0 renal. Besides, the GI50 was 0.0177 µM in the test with HCT-116 colon, 0.0208 µM with DU-145 prostate and 0.0406 µM with HOP-62 NSCLC. For the same molecule, the TGI with EKVX NSCLC was found to be 0.212 µM; in the test with PC-3 prostate, 0.183 µM; with SF-539 CNS, 0.153 µM; with T-47D breast, 0.0706 µM; in the test on 786-0 renal, 0.505 µM; with HCT-116 colon, 0.116 µM. In addition, the TGI in the test with DU-145 prostate came out at 0.123 µM; in the test on HOP-62 NSCLC, 1.75 µM.
Take `CCOC(=O)Nc1nc2c(F)c(F)c(F)cc2s1`: the GI50 is greater than 100 µM with HL-60(TB) leukemia; greater than 100 µM in the test with PC-3 prostate; 28.7 µM in the test on SF-539 CNS; 61.8 µM in the test with T-47D breast; 84.3 µM with 786-0 renal; 58.3 µM in the test with BT-549 breast. For the same molecule, the GI50 in the test on HCT-116 colon was 58.6 µM; with DU-145 prostate, 75.1 µM; in the test with HOP-62 NSCLC, 33.9 µM. The TGI in the test on HL-60(TB) leukemia was greater than 100 µM; in the test on PC-3 prostate, greater than 100 µM; with SF-539 CNS, 98.2 µM; in the test with T-47D breast it was greater than 100 µM; in the test on 786-0 renal, greater than 100 µM; in the test on BT-549 breast, greater than 100 µM. Also, the TGI with HCT-116 colon, in the test with DU-145 prostate and in the test on HOP-62 NSCLC was greater than 100 µM throughout.
Take `COc1cc(C)c(C(=O)/C=C/c2cc(OC)c(O)c(OC)c2)cc1O`: the TGI is 64.8 µM with HL-60(TB) leukemia; greater than 100 µM in the test with EKVX NSCLC; 93.1 µM with SF-539 CNS; 39.7 µM with 786-0 renal; 27 µM in the test with HCT-116 colon; 69.3 µM in the test on HOP-62 NSCLC.
As to `COc1cc2ccc(CC#N)cc2cc1OC`, the TGI in the test on HL-60(TB) leukemia, in the test on EKVX NSCLC, in the test with SF-539 CNS, with 786-0 renal and in the test with HOP-62 NSCLC was greater than 100 µM each time.
For the molecule `CCOC(=O)CNC(SC)=C(C#N)C#N`, the TGI with HL-60(TB) leukemia, in the test with EKVX NSCLC, in the test with SF-539 CNS, in the test on 786-0 renal, in the test on HCT-116 colon and with HOP-62 NSCLC was greater than 100 µM each time.
`CC(C)O/C=C1\C(=O)C2(SCCS2)[C@H]2CCCC[C@@H]12`: the TGI with HL-60(TB) leukemia is 53.4 µM; in the test with SF-539 CNS it was greater than 100 µM; in the test with 786-0 renal it was greater than 100 µM; in the test with HCT-116 colon it was greater than 100 µM; in the test on HOP-62 NSCLC, greater than 100 µM.
In the case of `O=C(N/C(=C\c1ccc([N+](=O)[O-])cc1)c1nc2[nH]c(=S)[nH]c(=O)c2[nH]1)c1ccccc1`, the TGI in the test with EKVX NSCLC, in the test with SF-539 CNS and in the test on 786-0 renal was greater than 100 µM in each case.
For `C(=C1\CCC/C(=C/c2ccccc2)C1=NNc1ccccc1)/c1ccccc1`, the TGI in the test on HL-60(TB) leukemia, with EKVX NSCLC, with SF-539 CNS, in the test with 786-0 renal, in the test with HCT-116 colon and in the test with HOP-62 NSCLC was greater than 100 µM in each case.
Take `CSC(=S)N(C)NC(=O)c1cccc(C(=O)NN(C)C(=S)SC)n1`: the TGI in the test with HL-60(TB) leukemia is 48.3 µM; in the test on EKVX NSCLC, greater than 100 µM; with SF-539 CNS, 70.1 µM; in the test with 786-0 renal it was 91.8 µM; with HCT-116 colon, greater than 100 µM; with HOP-62 NSCLC, 37.3 µM.
On to `COc1cc(NCC(C#N)C#N)ccc1N=Nc1ccc([N+](=O)[O-])cc1`, for which the TGI in the test on EKVX NSCLC, in the test with SF-539 CNS, with 786-0 renal, in the test on HCT-116 colon and with HOP-62 NSCLC was greater than 100 µM throughout.
For `CC1=C(C(=O)Nc2ccccc2C)C(c2ccc(N(C)C)cc2)C(C(=O)Nc2ccccc2C)=C(C)N1`, the TGI with HL-60(TB) leukemia was 53.8 µM; with EKVX NSCLC it was greater than 100 µM; in the test with SF-539 CNS, greater than 100 µM; in the test with 786-0 renal it was greater than 100 µM; in the test with HCT-116 colon it was greater than 100 µM; in the test on HOP-62 NSCLC, greater than 100 µM.
Regarding `CCCNC(=O)c1cc2ccccc2cc1C(=O)OC`, the TGI in the test with HL-60(TB) leukemia, with EKVX NSCLC, in the test with SF-539 CNS, with 786-0 renal, in the test on HCT-116 colon and in the test on HOP-62 NSCLC was greater than 100 µM each time.
`Cn1c(=O)c(C(c2ccccc2)c2c(O)c3ccccc3n(C)c2=O)c(O)c2ccccc21`: the TGI with HL-60(TB) leukemia, with EKVX NSCLC, in the test with SF-539 CNS, in the test with 786-0 renal and in the test with HCT-116 colon was greater than 100 µM throughout.
Consider `O=C1c2cnccc2Cc2cccc3c2N1c1ccccc1S3`, for which the TGI with HL-60(TB) leukemia stood at 67.1 µM; in the test with SF-539 CNS it was 43.3 µM; in the test with 786-0 renal it was 97.8 µM; in the test with HCT-116 colon it was 33.8 µM; in the test with HOP-62 NSCLC, 57.2 µM.
Take `Cc1c(N2C(=O)/C(=C\c3ccc(O)cc3)N=C2c2ccccc2)c(=O)n(-c2ccccc2)n1C`: the GI50 in the test with HL-60(TB) leukemia, in the test with EKVX NSCLC, in the test with PC-3 prostate, with SF-539 CNS, in the test on T-47D breast and with 786-0 renal was greater than 100 µM each time. Also, the GI50 in the test on HCT-116 colon, with DU-145 prostate and with HOP-62 NSCLC was greater than 100 µM in each case. In addition, the TGI in the test on HL-60(TB) leukemia, in the test on EKVX NSCLC, with PC-3 prostate, in the test on SF-539 CNS, with T-47D breast and with 786-0 renal was greater than 100 µM each time. Also, the TGI in the test on HCT-116 colon, in the test on DU-145 prostate and with HOP-62 NSCLC was greater than 100 µM each time.
For the molecule `COc1cc(C2[C@H]3C(=O)N(c4ccc(Cc5ccc(N6C(=O)[C@@H]7ON(c8ccccc8)C(c8cc(OC)c(OC)c(OC)c8)[C@@H]7C6=O)cc5)cc4)C(=O)[C@H]3ON2c2ccccc2)cc(OC)c1OC` (stereo partly drawn), the TGI in the test on HL-60(TB) leukemia, in the test with EKVX NSCLC, in the test with SF-539 CNS, with 786-0 renal, in the test with HCT-116 colon and with HOP-62 NSCLC was greater than 100 µM each time.
